The numbers were not newly measured in patent US4127520A, “Novel nonadecapeptides, intermediates therefor, and compositions and methods employing said nonadecapeptides” (priority 1977, dated 1978), which cites them from elsewhere.

Data set [1] concerns partially purified brain opiate receptor sites. The settings on record: natural peptide.
The conditions of data set [2]: injected directly into the brain of the rat.

For “H-Tyr-Gly-Gly-Phe-Met-OH [methionine enkephalin]”, in data set [1], the “binding to partially purified brain opiate receptor sites” value was “binds stereo-specifically”. Moreover, in data set [2], the analgesic activity entry is listed as “only weak analgesic agent of short duration”.
